Assay results as given in PubChem BioAssay (NCI).
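Dose response: 5 concentrations. Exposure: 48 h. Format: 96-well plates. Endpoint: linear interpolation; highest concentration if not reached. At the TGI there is no net growth.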

Key:
Assay in all cases: growth of human tumour cells (NCI), 48 h
786-0 renal = test system: 786-0 renal
A498 renal = test system: A498 renal
A549 NSCLC = test system: A549 NSCLC
ACHN renal = test system: ACHN renal
BT-549 breast = test system: BT-549 breast
CAKI-1 renal = test system: CAKI-1 renal
CCRF-CEM leukemia = test system: CCRF-CEM leukemia
COLO 205 colon = test system: COLO 205 colon
DU-145 prostate = test system: DU-145 prostate
EKVX NSCLC = test system: EKVX NSCLC
HCC-2998 colon = test system: HCC-2998 colon
HCT-116 colon = test system: HCT-116 colon
HCT-15 colon = test system: HCT-15 colon
HL-60(TB) leukemia = test system: HL-60(TB) leukemia
HOP-62 NSCLC = test system: HOP-62 NSCLC
HOP-92 NSCLC = test system: HOP-92 NSCLC
HS 578T breast = test system: HS 578T breast
HT29 colon = test system: HT29 colon
IGROV1 ovarian = test system: IGROV1 ovarian
K-562 leukemia = test system: K-562 leukemia
LOX IMVI melanoma = test system: LOX IMVI melanoma
M14 melanoma = test system: M14 melanoma
MALME-3M melanoma = test system: MALME-3M melanoma
MCF7 breast = test system: MCF7 breast
MDA-MB-231 breast = test system: MDA-MB-231 breast
MDA-MB-435 = test system: MDA-MB-435
MDA-N = test system: MDA-N
MOLT-4 leukemia = test system: MOLT-4 leukemia
NCI-H226 lung = test system: NCI-H226 lung
NCI-H23 lung = test system: NCI-H23 lung
NCI-H460 lung = test system: NCI-H460 lung
NCI-H522 lung = test system: NCI-H522 lung
OVCAR-3 ovarian = test system: OVCAR-3 ovarian
OVCAR-4 ovarian = test system: OVCAR-4 ovarian
OVCAR-5 ovarian = test system: OVCAR-5 ovarian
PC-3 prostate = test system: PC-3 prostate
RPMI-8226 leukemia = test system: RPMI-8226 leukemia
RXF 393 renal = test system: RXF 393 renal
SF-268 CNS = test system: SF-268 CNS
SF-295 CNS = test system: SF-295 CNS
SF-539 CNS = test system: SF-539 CNS
SK-MEL-2 melanoma = test system: SK-MEL-2 melanoma
SK-MEL-28 melanoma = test system: SK-MEL-28 melanoma
SK-MEL-5 melanoma = test system: SK-MEL-5 melanoma
SK-OV-3 ovarian = test system: SK-OV-3 ovarian
SN12C renal = test system: SN12C renal
SNB-19 CNS = test system: SNB-19 CNS
SR leukemia = test system: SR leukemia
SW-620 colon = test system: SW-620 colon
T-47D breast = test system: T-47D breast
TK-10 renal = test system: TK-10 renal
U251 CNS = test system: U251 CNS
UACC-257 melanoma = test system: UACC-257 melanoma
UACC-62 melanoma = test system: UACC-62 melanoma
UO-31 renal = test system: UO-31 renal
KM12 colon = test system: KM12 colon
SNB-75 CNS = test system: SNB-75 CNS

CN1N(c2ccccc2)C(=O)C2=NC=C(C(=O)c3ccccc3)C(=N)C21C (stereo not drawn)
TGI (786-0 renal): > 100 µM
TGI (A498 renal): > 100 µM
TGI (A549 NSCLC): > 100 µM
TGI (ACHN renal): > 100 µM
TGI (BT-549 breast): > 100 µM
TGI (CAKI-1 renal): > 100 µM
TGI (CCRF-CEM leukemia): > 100 µM
TGI (COLO 205 colon): > 100 µM
TGI (DU-145 prostate): > 100 µM
TGI (EKVX NSCLC): > 100 µM
TGI (HCC-2998 colon): > 100 µM
TGI (HCT-116 colon): > 100 µM
TGI (HCT-15 colon): > 100 µM
TGI (HL-60(TB) leukemia): > 100 µM
TGI (HOP-62 NSCLC): > 100 µM
TGI (HOP-92 NSCLC): > 100 µM
TGI (HS 578T breast): > 100 µM
TGI (HT29 colon): > 100 µM
TGI (IGROV1 ovarian): > 100 µM
TGI (K-562 leukemia): > 100 µM
TGI (LOX IMVI melanoma): > 100 µM
TGI (M14 melanoma): > 100 µM
TGI (MALME-3M melanoma): > 100 µM
TGI (MCF7 breast): > 100 µM
TGI (MDA-MB-231 breast): > 100 µM
TGI (MDA-MB-435): > 100 µM
TGI (MDA-N): > 100 µM
TGI (MOLT-4 leukemia): > 100 µM
TGI (NCI-H226 lung): > 100 µM
TGI (NCI-H23 lung): > 100 µM
TGI (NCI-H460 lung): > 100 µM
TGI (NCI-H522 lung): > 100 µM
TGI (OVCAR-3 ovarian): > 100 µM
TGI (OVCAR-4 ovarian): > 100 µM
TGI (OVCAR-5 ovarian): > 100 µM
TGI (PC-3 prostate): > 100 µM
TGI (RPMI-8226 leukemia): > 100 µM
TGI (RXF 393 renal): > 100 µM
TGI (SF-268 CNS): > 100 µM
TGI (SF-295 CNS): > 100 µM
TGI (SF-539 CNS): > 100 µM
TGI (SK-MEL-2 melanoma): > 100 µM
TGI (SK-MEL-28 melanoma): > 100 µM
TGI (SK-MEL-5 melanoma): > 100 µM
TGI (SK-OV-3 ovarian): > 100 µM
TGI (SN12C renal): > 100 µM
TGI (SNB-19 CNS): > 100 µM
TGI (SR leukemia): > 100 µM
TGI (SW-620 colon): > 100 µM
TGI (T-47D breast): > 100 µM
TGI (TK-10 renal): > 100 µM
TGI (U251 CNS): > 100 µM
TGI (UACC-257 melanoma): > 100 µM
TGI (UACC-62 melanoma): > 100 µM
TGI (UO-31 renal): > 100 µM

Cc1cc(=O)[nH]c(-n2[nH]c3c(c2=O)CCCC3)n1
TGI (786-0 renal): > 100 µM
TGI (A498 renal): > 100 µM
TGI (A549 NSCLC): > 100 µM
TGI (ACHN renal): > 100 µM
TGI (BT-549 breast): > 100 µM
TGI (CAKI-1 renal): > 100 µM
TGI (CCRF-CEM leukemia): > 100 µM
TGI (COLO 205 colon): > 100 µM
TGI (DU-145 prostate): > 100 µM
TGI (EKVX NSCLC): > 100 µM
TGI (HCT-116 colon): > 100 µM
TGI (HCT-15 colon): > 100 µM
TGI (HL-60(TB) leukemia): > 100 µM
TGI (HOP-92 NSCLC): > 100 µM
TGI (HS 578T breast): > 100 µM
TGI (HT29 colon): > 100 µM
TGI (IGROV1 ovarian): > 100 µM
TGI (K-562 leukemia): > 100 µM
TGI (KM12 colon): > 100 µM
TGI (M14 melanoma): > 100 µM
TGI (MALME-3M melanoma): > 100 µM
TGI (MCF7 breast): > 100 µM
TGI (MDA-MB-231 breast): > 100 µM
TGI (MDA-MB-435): > 100 µM
TGI (MDA-N): > 100 µM
TGI (MOLT-4 leukemia): > 100 µM
TGI (NCI-H226 lung): > 100 µM
TGI (NCI-H23 lung): > 100 µM
TGI (NCI-H460 lung): > 100 µM
TGI (NCI-H522 lung): > 100 µM
TGI (OVCAR-4 ovarian): > 100 µM
TGI (OVCAR-5 ovarian): > 100 µM
TGI (PC-3 prostate): > 100 µM
TGI (RPMI-8226 leukemia): > 100 µM
TGI (RXF 393 renal): 48.7 µM
TGI (SF-268 CNS): > 100 µM
TGI (SF-295 CNS): > 100 µM
TGI (SF-539 CNS): > 100 µM
TGI (SK-MEL-2 melanoma): > 100 µM
TGI (SK-MEL-28 melanoma): > 100 µM
TGI (SK-MEL-5 melanoma): > 100 µM
TGI (SK-OV-3 ovarian): > 100 µM
TGI (SN12C renal): > 100 µM
TGI (SNB-19 CNS): > 100 µM
TGI (SNB-75 CNS): 9.37 µM
TGI (SR leukemia): > 100 µM
TGI (SW-620 colon): > 100 µM
TGI (T-47D breast): > 100 µM
TGI (TK-10 renal): > 100 µM
TGI (U251 CNS): > 100 µM
TGI (UACC-257 melanoma): > 100 µM
TGI (UACC-62 melanoma): > 100 µM
TGI (UO-31 renal): > 100 µM
